Reference: PubChem BioAssay (NCI)
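Where inhibition never reached the appropriate level, the endpoint shown equals the highest concentration tested. Otherwise, values were interpolated linearly from a five-concentration, 48-hour dose response in 96-well plates. The concentration for full growth arrest is given as TGI.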

Key:
Test in all cases: growth of human tumour cells (NCI), 48 h
BT-549 breast = test system: BT-549 breast
HCT-15 colon = test system: HCT-15 colon
HOP-62 NSCLC = test system: HOP-62 NSCLC
MOLT-4 leukemia = test system: MOLT-4 leukemia
SK-MEL-28 melanoma = test system: SK-MEL-28 melanoma
SN12C renal = test system: SN12C renal
SNB-75 CNS = test system: SNB-75 CNS
UACC-62 melanoma = test system: UACC-62 melanoma

SMILES	TGI (BT-549 breast) [µM]	TGI (HCT-15 colon) [µM]	TGI (HOP-62 NSCLC) [µM]	TGI (MOLT-4 leukemia) [µM]	TGI (SK-MEL-28 melanoma) [µM]	TGI (SN12C renal) [µM]	TGI (SNB-75 CNS) [µM]	TGI (UACC-62 melanoma) [µM]
COC(=O)C1C2OC(C)(C)OC2CN1S(=O)(=O)c1ccc(C)cc1 (stereo not given)	> 100	> 100	> 100	> 100	> 100	> 100	> 100	> 100
C[C@]12CC[C@H]3[C@@H](CCC4=CC(=O)CC[C@@H]43)[C@@H]1CC[C@]2(O)C(N)=O	> 100	> 100	> 100	> 100	> 100	> 100	> 100	> 100
CC(=O)O[C@H]1C(=O)[C@@]2(C)[C@H]([C@H](OC(=O)c3ccccc3)[C@]3(O)C[C@H](OC(=O)[C@H](O)[C@@H](NC(=O)c4ccc(N)cc4)c4ccccc4)C(C)=C1C3(C)C)[C@]1(OC(C)=O)CO[C@@H]1C[C@@H]2O	> 50	> 50	> 50	> 29.5	> 50		> 50	> 50
O=C1c2c(Br)sc(Br)c2C(NC(=O)C(F)(F)F)C1O (stereo not given)	34.9	33.6		> 100	43.7	34.1	> 100	40.8
OC1=C2c3ccccc3NC2Oc2cc(F)ccc21 (stereo not given)	48.2	37.3	33.2	34.5	> 100	25.9		34.7
CCOC(=O)/C(C#N)=C/Nc1c(C)n(C)n(-c2ccccc2)c1=O	> 100	> 100		> 100		> 100		> 100
O=C(Nc1ccc(Cl)cc1)c1cc(S(=O)(=O)Nc2n[nH]c(Nc3ccc4ccccc4c3)n2)c(SSc2cc(Cl)c(C(=O)Nc3ccc(Cl)cc3)cc2S(=O)(=O)Nc2n[nH]c(Nc3ccc4ccccc4c3)n2)cc1Cl	61.1	43.7	80.6	42.3	46.9	59.2	76.6	51.7
[O-][n+]1nc(N2CCOCC2)nc2ccccc21	> 100	> 100	> 100	> 100	> 100	> 100	> 100	> 100
CC1=CC[C@H](C[C@H](C#CCCCC2OCCO2)O[Si](C(C)C)(C(C)C)C(C)C)C(=O)CC1	> 100	> 100	> 100	> 100	> 100	> 100	> 100	> 100
COc1cc(C(=O)NNC(=O)c2cc(Br)ccc2NC(=O)c2cccs2)cc(OC)c1OC	> 100	62.3	42.2	> 100		60.3	24.6	34.1
COc1nn(Cc2ccccn2)c2ccc([N+](=O)[O-])cc12	> 100	> 100	> 100	> 100	> 100	> 100	93	> 100
COc1ccc(CC2Cc3ccccc3CCN2)cc1OC (stereo not given)	> 50	> 50	> 50	> 50	> 50	> 50	> 50	> 50
CCSc1nnc(Sc2c3ccccc3nc3ccccc23)s1	31.7	13.3	> 100	6.25	> 59.1	59.9	> 100	31.6
O=S(=O)(O)CCSSCCS(=O)(=O)O	> 1000	> 1000	> 1000	> 1000	> 1000	> 1000	> 1000	> 1000
Cc1cccc2nc(-c3ccccc3)cc(=O)n12	> 100	> 100	> 100	> 100	> 100	> 100		> 100
CCCCCCCCCCCCCCCCP(=O)(O)OCC(N)C(=O)O (stereo not given)		> 100	47.9	42.4	> 100	> 100	65.1	> 100
O=C1CSC(c2ccccc2)N1c1nc2cc3sc(N4C(=O)CSC4c4ccccc4)nc3cc2s1 (stereo not given)	> 100	> 100	> 100	> 100	> 100	> 100	> 92.3	> 100
CCCCNC(=S)Nc1nc(C(=O)NNC(=S)NCC)cs1	> 100	> 100	> 100	> 100		> 100	> 100	> 100
C1=C(CC2=C[P+](c3ccccc3)(c3ccccc3)C=C(c3ccccc3)O2)OC(c2ccccc2)=C[P+]1(c1ccccc1)c1ccccc1	0.309	3.22	1.88	1.6	2.02		0.881	
CC(NC(=O)OCc1ccccc1)NC(=O)OC(C)(C)C (stereo not given)	> 100	> 100	> 100	> 100	> 100	> 100	> 100	> 100
CC[C@]12C=CCN3CC[C@@]4(c5cc(Br)c(OC)c([N+](=O)[O-])c5N(C)[C@H]4[C@@](O)(C(=O)OC)[C@@H]1OC(C)=O)[C@@H]32	> 100	> 100	> 100	70.6	> 100	> 100	> 100	> 100
CC(=O)NC1C(OCc2ccccc2)OC(CO)C(O)C1OC(C)C(=O)NC(C(=O)NC(CCC(=O)NCCCC(=O)Nc1ccc2c(c1)CN1C(=O)c3ccccc3C1=N2)C(N)=O)C(C)C (stereo not given)	> 100	> 100	> 100	> 100	> 100	> 100	> 100	> 100
O=c1[nH]c(=O)n(C/C=C/CO)nc1Br	> 100	> 100	> 100	> 100	> 100	> 100	> 100	> 100
CC1=NN(c2cccc(S(=O)(=O)O)c2)C2(C1)C(Cl)C(=O)N2c1nc2ccccc2s1 (stereo not given)	18.7	17.8	17.9	11.8	36.1	19.9	13.1	19.1
